Reference: paper PMC9730833, “Targeting OCT2 with Duloxetine to Prevent Oxaliplatin-induced Peripheral Neurotoxicity” (Cancer Research Communications, 2022)

Assays:
Type in all cases: cell-based
OCT2 (hOCT2) [1] = biological target: T1, OCT2 (hOCT2) (Homo sapiens, UniProt O15244); assay: fluorescent substrate uptake in HEK293 and Hela cells overexpressing hOCT2
T1 construct: gene SLC22A2
T1 sequence (O15244 1-555): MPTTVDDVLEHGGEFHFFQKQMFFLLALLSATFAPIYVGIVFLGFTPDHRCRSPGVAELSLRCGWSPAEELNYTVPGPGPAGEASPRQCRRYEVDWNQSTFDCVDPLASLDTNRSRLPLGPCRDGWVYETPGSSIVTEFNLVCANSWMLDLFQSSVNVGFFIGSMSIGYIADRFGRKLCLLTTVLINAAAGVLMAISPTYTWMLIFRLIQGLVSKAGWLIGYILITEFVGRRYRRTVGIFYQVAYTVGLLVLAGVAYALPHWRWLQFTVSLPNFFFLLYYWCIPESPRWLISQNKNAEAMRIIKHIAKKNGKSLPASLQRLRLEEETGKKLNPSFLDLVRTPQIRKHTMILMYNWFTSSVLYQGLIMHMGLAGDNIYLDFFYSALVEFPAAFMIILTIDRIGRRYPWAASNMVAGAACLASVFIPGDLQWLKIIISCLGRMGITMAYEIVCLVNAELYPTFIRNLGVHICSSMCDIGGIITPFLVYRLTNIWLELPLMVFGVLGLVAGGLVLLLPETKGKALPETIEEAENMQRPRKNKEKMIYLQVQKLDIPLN

OCT2 (mOCT2) [2] = biological target: T2, OCT2 (mOCT2) (Mus musculus, UniProt O70577); assay: fluorescent substrate uptake in cells overexpressing mOCT2; uptake impaired in OCT1/[…](−/−) satellite glial cells
T2 construct: gene Slc22a2
T2 sequence (O70577 1-553): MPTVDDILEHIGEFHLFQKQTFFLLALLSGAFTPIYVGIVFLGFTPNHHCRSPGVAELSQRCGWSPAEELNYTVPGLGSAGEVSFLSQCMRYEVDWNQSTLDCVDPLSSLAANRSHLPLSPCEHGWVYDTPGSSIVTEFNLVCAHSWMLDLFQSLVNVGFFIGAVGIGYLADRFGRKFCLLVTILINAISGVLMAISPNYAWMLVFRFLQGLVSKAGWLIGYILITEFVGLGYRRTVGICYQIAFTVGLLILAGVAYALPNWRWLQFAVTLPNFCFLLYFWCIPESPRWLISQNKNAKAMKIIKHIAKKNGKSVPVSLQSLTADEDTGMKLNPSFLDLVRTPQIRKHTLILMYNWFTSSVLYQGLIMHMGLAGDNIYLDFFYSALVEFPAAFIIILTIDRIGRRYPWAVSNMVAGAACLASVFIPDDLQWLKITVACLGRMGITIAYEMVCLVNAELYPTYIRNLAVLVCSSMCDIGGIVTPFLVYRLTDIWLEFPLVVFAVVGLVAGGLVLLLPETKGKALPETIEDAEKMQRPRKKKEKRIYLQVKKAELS

OCT2 (mOCT2) [3] = biological target: T2, OCT2 (mOCT2); assay: inhibition of TEA, oxaliplatin and ASP uptake in HEK293 cells overexpressing mOCT2; reversible on washout
OCT2 (hOCT2) [4] = biological target: T1, OCT2 (hOCT2); assay: inhibition of ASP uptake in Hela cells overexpressing hOCT2 ([…] in HEK293 cells)
OCT2 (rOCT2) = biological target: T3, OCT2 (rOCT2) (Rattus norvegicus, UniProt Q9R0W2); assay: inhibition of TEA uptake in HEK293 cells overexpressing rOCT2
T3 construct: gene Slc22a2
T3 sequence (Q9R0W2 1-555): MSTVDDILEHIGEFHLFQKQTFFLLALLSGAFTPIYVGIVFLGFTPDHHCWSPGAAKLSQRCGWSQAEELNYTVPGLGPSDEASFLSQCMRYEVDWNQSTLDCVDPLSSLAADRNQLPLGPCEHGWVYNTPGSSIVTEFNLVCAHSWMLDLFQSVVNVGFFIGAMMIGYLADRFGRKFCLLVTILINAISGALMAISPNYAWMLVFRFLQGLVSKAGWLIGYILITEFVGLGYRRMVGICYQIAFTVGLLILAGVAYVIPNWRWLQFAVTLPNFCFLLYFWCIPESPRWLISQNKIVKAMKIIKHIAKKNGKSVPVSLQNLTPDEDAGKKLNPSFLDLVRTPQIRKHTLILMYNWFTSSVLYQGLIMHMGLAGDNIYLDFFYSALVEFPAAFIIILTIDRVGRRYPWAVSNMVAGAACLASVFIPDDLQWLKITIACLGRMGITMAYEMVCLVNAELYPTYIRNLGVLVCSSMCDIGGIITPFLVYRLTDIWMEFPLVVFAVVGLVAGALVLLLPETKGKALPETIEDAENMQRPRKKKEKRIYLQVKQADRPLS

Question: With `CN(C)c1ccc(C=Cc2cc[n+](C)cc2)cc1` [4-(4-(dimethylamino)styryl)-N-methylpyridinium iodide] as the molecule, how does the “fluorescent substrate uptake in HEK293 and Hela cells overexpressing hOCT2” value (OCT2 (hOCT2) [1]) read?
Answer: Concentration-dependent inhibition of OCT2-dependent ASP transport by duloxetine in HEK293 and Hela cells overexpressing hOCT2

Question: What about the “fluorescent substrate uptake in cells overexpressing mOCT2; uptake impaired in O” value (OCT2 (mOCT2) [2]) of the same molecule?
Answer: ASP was taken up in OCT2-proficient cells and uptake was significantly impaired under OCT2-deficient conditions

Question: `CNCC[C@H](Oc1cccc2ccccc12)c1cccs1` [duloxetine] was tested. Which “inhibition of TEA, oxaliplatin and ASP uptake in HEK293 cells overexpressing mOC” value (OCT2 (mOCT2) [3]) did it give?
Answer: These studies confirmed that duloxetine inhibits the transport of TEA by mouse, rat, and human OCT2.

Question: And the IC50 (OCT2 (hOCT2) [4])?
Answer: 3.98 µM

Question: And the “inhibition of TEA uptake in HEK293 cells overexpressing rOCT2” value (OCT2 (rOCT2))?
Answer: These studies confirmed that duloxetine inhibits the transport of TEA by mouse, rat, and human OCT2.
